Measured values as given in PMC7708037, “Targeting OGG1 arrests cancer cell proliferation by inducing replication stress” (Nucleic Acids Research, 2020).

Experiments:
[1] = test system: HEK293T and HEK293T(KO) cells; test: Colony area of HEK293T vs HEK293T(KO); assay type: cell-based, human; conditions: 8 days exposure
From the text: 250 HEK293T or HEK293T (KO) cells were counted and seeded in 6-well plates for 8 days in the presence or absence of TH5487 at indicated concentrations. Colonies were directly scanned after removing media and drying colonies. Area of HEK293T or HEK293T(KO) colonies was digitally colour contrasted and then analysed using ImageJ. […]
untreated parental HEK293T. Data are average ±SEM of 4 technical replicates from 2 independent experiments. F. Comparative analysis of the colony area (pixels) for HEK293T or HEK293T(KO) cells exposed for eight days to TH5487 or DMSO. Data are average ±SEM of 4 technical replicates from 2 independent experiments. Statistical significance was determined using Mann Witney test (**, P<0.01, ***, P<0.001 and ****, P<0.0001 , ns, non-significant).
Supplementary Fig. S6: 8 -oxodG levels and cell cycle distribution. A. 8-oxodG accumulation in A3 knockdown cells. The indicated shNT cells were treated with 250 ng/ml doxycycline for 0, 96, or 144 h, and the amount of genomic 8-oxodG was quantified with LC -MS/MS. […] Cells were treated with 10 µM TH5487 or an equivalent volume DMSO for the indicated times, and the cell cycle distribution was determined by flow cytometry. […] A3 shNT (grey), sh2 (blue), and sh3 (red), were treated with 250 ng/ml doxycycline for 48 –120 h, and the cell cycle distribution was determined with flow cytometry. […]

A3 xenograft tumors = test: Mouse xenograft experiment; assay type: in vivo; conditions: A3 subcutaneous tumors in NOD-SCID mice, oral 20 mg/kg, increased to 40 mg/kg
Method: Animal experiments were conducted as per the European directive, ethical guideline and regulations of the regional animal ethical committee Stockholm 2010/63 (N8914). Upon arrival to animal facility, animals were acclimatized in the animal house for a week with ad lib food and water, with a 12 h light cycle and the temperature and humidity set according to laboratory animal guidelines and regulations. For the xenograft experiment involving inducible shRNA, 1 × 10^7 non-targeting luciferase transfected A3 cells in 50% matrigel in PBS were injected into flank region of BALB/c nude mice. Later, mice from non-targeting and shRNA groups were randomly divided into two groups containing eight mice per group. […] Tumor volume was measured using calipers (length × 0.52 × width × width) and bioluminescence images were taken using an IVIS spectrum in vivo imaging system (Perkin-Elmer) after intraperitoneal injection of D-luciferin (150 mg/kg in PBS). […] Following lysis by three freeze-thaw cycles, samples were centrifuged at 20 000 × g for 30 min, and OGG1 in the supernatant was detected by immunoblotting. […]
Figure 7. […] Tumors were excised following termination, and TH5487 target engagement was analyzed by cellular thermal shift assay, using an antibody specific for the human OGG1 protein. […]

O=C(Nc1ccc(I)cc1)N1CCC(n2c(=O)[nH]c3c(Br)cccc32)CC1 [TH5487]
Colony area, HEK293T compared to HEK293T (KO) [1]: significantly reduced
Xenograft growth inhibition (A3 xenograft tumors): not able to detect xenograft growth inhibition
